Assay: xn = mol fraction of the nth substance listed
Conditions: 101 kPa, Liquid; for speed of sound: Linear variable-path acoustic interferometer; for mass density: Vibrating tube method

NC1CCCCC1 [cyclohexylamine] + c1ccccc1
Conditions	mass density [kg/m3]	speed of sound [m/s]
293.15 K, x1 = 0.0621	877.45	1328
293.15 K, x1 = 0.0938	876.73	1331
293.15 K, x1 = 0.1434	875.68	1335.6
293.15 K, x1 = 0.1546	875.47	1336.6
293.15 K, x1 = 0.2031	874.52	1341.3
293.15 K, x1 = 0.2475	873.73	1345.8
293.15 K, x1 = 0.2972	872.9	1350.9
293.15 K, x1 = 0.3472	872.15	1356.1
293.15 K, x1 = 0.3945	871.5	1361.2
293.15 K, x1 = 0.4786	870.45	1370.2
293.15 K, x1 = 0.4948	870.28	1372.1
293.15 K, x1 = 0.5013	870.2	1372.6
293.15 K, x1 = 0.5389	869.83	1376.9
293.15 K, x1 = 0.5396	869.83	1377
293.15 K, x1 = 0.5419	869.8	1377.1
293.15 K, x1 = 0.5927	869.3	1382.8
293.15 K, x1 = 0.6428	868.89	1388.4
293.15 K, x1 = 0.6927	868.55	1394.2
293.15 K, x1 = 0.7465	868.2	1400.3
293.15 K, x1 = 0.7962	867.93	1405.9
293.15 K, x1 = 0.8474	867.74	1411.9
293.15 K, x1 = 0.897	867.61	1418
293.15 K, x1 = 0.9485	867.49	1424.2
293.15 K, x1 = 1	867.39	1430.5
298.15 K, x1 = 0.0621	872.22	1304.7
298.15 K, x1 = 0.0938	871.52	1307.7
298.15 K, x1 = 0.1434	870.56	1312.3
298.15 K, x1 = 0.1546	870.34	1313.4
298.15 K, x1 = 0.2031	869.46	1318.1
298.15 K, x1 = 0.2475	868.71	1322.7
298.15 K, x1 = 0.2972	867.95	1327.9
298.15 K, x1 = 0.3472	867.25	1333.3
298.15 K, x1 = 0.3945	866.64	1338.4
298.15 K, x1 = 0.4786	865.69	1347.5
298.15 K, x1 = 0.4948	865.5	1349.2
298.15 K, x1 = 0.5013	865.45	1349.9
298.15 K, x1 = 0.5389	865.08	1354.3
298.15 K, x1 = 0.5396	865.08	1354.4
298.15 K, x1 = 0.5419	865.06	1354.6
298.15 K, x1 = 0.5927	864.62	1360.2
298.15 K, x1 = 0.6428	864.23	1365.8
298.15 K, x1 = 0.6927	863.88	1371.8
298.15 K, x1 = 0.7465	863.59	1378
298.15 K, x1 = 0.7962	863.33	1383.7
298.15 K, x1 = 0.8474	863.17	1389.9
298.15 K, x1 = 0.897	863.04	1396
298.15 K, x1 = 0.9485	862.94	1402.4
298.15 K, x1 = 1	862.85	1408.8
303.15 K, x1 = 0.0621	866.94	1281.5
303.15 K, x1 = 0.0938	866.31	1284.3
303.15 K, x1 = 0.1434	865.4	1289.2
303.15 K, x1 = 0.1546	865.2	1290.3
303.15 K, x1 = 0.2031	864.38	1295.1
303.15 K, x1 = 0.2475	863.69	1299.7
303.15 K, x1 = 0.2972	862.98	1305.2
303.15 K, x1 = 0.3472	862.36	1310.6
303.15 K, x1 = 0.3945	861.76	1315.6
303.15 K, x1 = 0.4786	860.88	1325
303.15 K, x1 = 0.4948	860.72	1326.9
303.15 K, x1 = 0.5013	860.67	1327.4
303.15 K, x1 = 0.5389	860.32	1331.8
303.15 K, x1 = 0.5396	860.32	1331.9
303.15 K, x1 = 0.5419	860.3	1332.1
303.15 K, x1 = 0.5927	859.9	1337.9
303.15 K, x1 = 0.6428	859.54	1343.5
303.15 K, x1 = 0.6927	859.24	1349.5
303.15 K, x1 = 0.7465	858.96	1355.6
303.15 K, x1 = 0.7962	858.72	1361.5
303.15 K, x1 = 0.8474	858.58	1367.9
303.15 K, x1 = 0.897	858.47	1374.1
303.15 K, x1 = 0.9485	858.38	1380.5
303.15 K, x1 = 1	858.31	1387.3
308.15 K, x1 = 0.0621	861.67	1258.4
308.15 K, x1 = 0.0938	861.08	1261.5
308.15 K, x1 = 0.1434	860.23	1266.2
308.15 K, x1 = 0.1546	860.04	1267.5
308.15 K, x1 = 0.2031	859.28	1272.5
308.15 K, x1 = 0.2475	858.65	1277.2
308.15 K, x1 = 0.2972	857.99	1282.6
308.15 K, x1 = 0.3472	857.38	1288.1
308.15 K, x1 = 0.3945	856.87	1293.2
308.15 K, x1 = 0.4786	856.07	1302.7
308.15 K, x1 = 0.4948	855.9	1304.6
308.15 K, x1 = 0.5013	855.87	1305.1
308.15 K, x1 = 0.5389	855.55	1309.4
308.15 K, x1 = 0.5396	855.55	1309.5
308.15 K, x1 = 0.5419	855.53	1309.8
308.15 K, x1 = 0.5927	855.17	1315.5
308.15 K, x1 = 0.6428	854.84	1321.3
308.15 K, x1 = 0.6927	854.58	1327.3
308.15 K, x1 = 0.7465	854.32	1333.5
308.15 K, x1 = 0.7962	854.16	1339.7
308.15 K, x1 = 0.8474	853.99	1345.9
308.15 K, x1 = 0.897	853.9	1352.2
308.15 K, x1 = 0.9485	853.83	1359
308.15 K, x1 = 1	853.76	1366
313.15 K, x1 = 0.0621	856.39	1235.4
313.15 K, x1 = 0.0938	855.84	1238.6
313.15 K, x1 = 0.1434	855.11	1243.5
313.15 K, x1 = 0.1546	854.94	1244.6
313.15 K, x1 = 0.2031	854.22	1249.7
313.15 K, x1 = 0.2475	853.65	1254.5
313.15 K, x1 = 0.2972	853.04	1260
313.15 K, x1 = 0.3472	852.51	1265.6
313.15 K, x1 = 0.3945	852.03	1270.9
313.15 K, x1 = 0.4786	851.24	1280.4
313.15 K, x1 = 0.4948	851.15	1282.3
313.15 K, x1 = 0.5013	851.07	1283
313.15 K, x1 = 0.5389	850.78	1287.3
313.15 K, x1 = 0.5396	850.78	1287.4
313.15 K, x1 = 0.5419	850.75	1287.7
313.15 K, x1 = 0.5927	850.43	1293.5
313.15 K, x1 = 0.6428	850.14	1299.4
313.15 K, x1 = 0.6927	849.92	1305.2
313.15 K, x1 = 0.7465	849.68	1311.7
313.15 K, x1 = 0.7962	849.53	1317.8
313.15 K, x1 = 0.8474	849.39	1324.1
313.15 K, x1 = 0.897	849.32	1330.5
313.15 K, x1 = 0.9485	849.27	1337.5
313.15 K, x1 = 1	849.23	1344.5
318.15 K, x1 = 0.0621	851.07	1212.6
318.15 K, x1 = 0.0938	850.53	1215.7
318.15 K, x1 = 0.1434	849.85	1220.9
318.15 K, x1 = 0.1546	849.69	1221.9
318.15 K, x1 = 0.2031	849.06	1227.1
318.15 K, x1 = 0.2475	848.53	1232
318.15 K, x1 = 0.2972	847.99	1237.5
318.15 K, x1 = 0.3472	847.44	1243.2
318.15 K, x1 = 0.3945	847.06	1248.6
318.15 K, x1 = 0.4786	846.39	1258.2
318.15 K, x1 = 0.4948	846.28	1260
318.15 K, x1 = 0.5013	846.24	1260.8
318.15 K, x1 = 0.5389	845.99	1265.3
318.15 K, x1 = 0.5396	845.99	1265.4
318.15 K, x1 = 0.5419	845.99	1265.7
318.15 K, x1 = 0.5927	845.7	1271.5
318.15 K, x1 = 0.6428	845.45	1277.4
318.15 K, x1 = 0.6927	845.29	1283.3
318.15 K, x1 = 0.7465	845.06	1289.9
318.15 K, x1 = 0.7962	844.93	1295.8
318.15 K, x1 = 0.8474	844.84	1302.4
318.15 K, x1 = 0.897	844.74	1308.8
318.15 K, x1 = 0.9485	844.71	1315.9
318.15 K, x1 = 1	844.68	1323.1
323.15 K, x1 = 0.0621	845.7	1190.1
323.15 K, x1 = 0.0938	845.26	1193.2
323.15 K, x1 = 0.1434	844.64	1198.3
323.15 K, x1 = 0.1546	844.5	1199.4
323.15 K, x1 = 0.2031	843.92	1204.6
323.15 K, x1 = 0.2475	843.45	1209.5
323.15 K, x1 = 0.2972	842.96	1215.1
323.15 K, x1 = 0.3472	842.52	1220.9
323.15 K, x1 = 0.3945	842.14	1226.2
323.15 K, x1 = 0.4786	841.55	1236.1
323.15 K, x1 = 0.4948	841.45	1237.9
323.15 K, x1 = 0.5013	841.42	1238.7
323.15 K, x1 = 0.5389	841.19	1243.1
323.15 K, x1 = 0.5396	841.19	1243.2
323.15 K, x1 = 0.5419	841.19	1243.5
323.15 K, x1 = 0.5927	840.94	1249.5
323.15 K, x1 = 0.6428	840.73	1255.5
323.15 K, x1 = 0.6927	840.66	1261.5
323.15 K, x1 = 0.7465	840.41	1268.1
323.15 K, x1 = 0.7962	840.3	1274.1
323.15 K, x1 = 0.8474	840.24	1280.6
323.15 K, x1 = 0.897	840.16	1287.1
323.15 K, x1 = 0.9485	840.16	1294.4
323.15 K, x1 = 1	840.14	1301.8
